{
  "source": "patent US12139498B1",
  "about": "“Positive allosteric modulators of the muscarinic acetylcholine receptor M4” (Vanderbilt University, priority 2023, dated 2024)",
  "key": {"Human M4": {"target": "T1, Human M4 (Homo sapiens, UniProt P08173)", "T1 sequence (P08173 1-479)": "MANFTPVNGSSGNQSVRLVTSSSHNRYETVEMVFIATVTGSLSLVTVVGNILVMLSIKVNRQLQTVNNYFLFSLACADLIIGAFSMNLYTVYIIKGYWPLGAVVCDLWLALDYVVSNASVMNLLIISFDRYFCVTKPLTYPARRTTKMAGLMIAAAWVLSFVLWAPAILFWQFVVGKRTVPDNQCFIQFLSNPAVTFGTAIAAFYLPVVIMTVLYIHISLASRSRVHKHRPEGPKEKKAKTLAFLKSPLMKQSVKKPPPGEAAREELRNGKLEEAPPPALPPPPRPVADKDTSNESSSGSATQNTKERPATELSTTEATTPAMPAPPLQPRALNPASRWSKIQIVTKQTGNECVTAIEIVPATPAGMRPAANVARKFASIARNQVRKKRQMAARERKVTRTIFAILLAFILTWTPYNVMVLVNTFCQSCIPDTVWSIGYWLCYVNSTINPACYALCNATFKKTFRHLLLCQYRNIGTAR", "test": "Cellular cAMP Gi HTRF assay (agonist and potentiator modes)", "format": "cell-based", "design": "expressed in transfected cells; host or cells: CHO cells stably expressing human M4", "conditions": "n = 2", "from_the_text": "Activation of the M4 receptor leads to the inhibition of cAMP production by coupling to Go proteins. To measure the level of CAMP inhibition by M4 allosteric modulators, a Homogeneous Time-Resolved Fluorescence (HTRF®) CAMP assay was employed using CHO cells stably expressing human or rat M4 receptors. The HTRF CAMP assay is a Time-Resolved Resonance Energy Transfer (TR-FRET) competitive immunoassay. Endogenous intracellular CAMP generated by cells competes with Europium cryptate-labeled cAMP (Europium donor, emission […]) for the binding to a cAMP antibody labeled with d2 (d2-acceptor, emission […]). Thus, the fluorescence emission ratio (665 nm/620 nm) is inversely proportional to the CAMP amount in the cells. Compound-mediated M4 activation results in an increase in HTRF ratio (665 nm/620 nm), indicative of a decrease in intracellular cAMP level. To monitor agonist activity, compounds were added to the M4 cells in the presence of an EC80 concentration of forskolin (adenylyl cyclase activator) which induces a submaximal intracellular cAMP level. To assess potentiator activity, compounds were added to the M4 cells with an EC50 concentration of forskolin in the presence of an EC20 concentration of acetylcholine. This functional assay allows determination of the potency and efficacy of compounds directly activating or potentiating the Gi/o-coupled M4 receptor; representative data are shown in Table 3.\nFunctional agonist and potentiator activities of compounds were determined by measuring cAMP levels in Chinese Hamster Ovary (CHO) cells stably expressing human or rat M4 muscarinic receptors using an HTRF CAMP Gi/o kit. Cells were maintained in F12 medium containing 10% FBS, 20 mM HEPES, 1× Antibiotic/Antimycotic, and G418 (500 μg/ml) in 37° C. humidified incubators in the presence of 5% CO2. The day before assay, the cells were trypsinized and resuspended in plating medium (growth medium without G418). The cells were plated to white, solid, flat-bottomed, 384 well plates at densities of 4,000 and 6,000 cells/10 μL/well, of human M4 and rat M4 cells, respectively. The cell plates were spun at 100×g for 1 min, then immediately placed in a 37° C. incubator in the presence of 5% CO2 overnight.\nThe next day, reagents were freshly diluted at a 2× concentration in assay buffer using F12 basal medium or stimulation buffer. All assay buffers contained 500 μM IBMX to block cAMP degradation. Activation of M4 by compounds was examined in cells stimulated with an EC80 concentration of forskolin to induce submaximal intracellular cAMP levels. Forskolin EC80 concentrations were determined from forskolin concentration response curves (CRCs) and ranged from 1.5 to 2.5 μM. […]"}, "MDCK-MDR1": {"test_system": "MDCK-MDR1", "test": "MDCK-MDR1 permeability / efflux", "format": "in vitro ADME", "conditions": "efflux ratio", "procedure": "(§1) Compound 70 was tested in several in in vitro assays to investigate both metabolism and pharmacokinetics. These assays may be performed according to known methods as generally described in the following references: Conde-Ceide et al. ACS Med. Chem. Lett. 2015, 6, 716-720; Morris et al. J. Med. Chem. 2014, 57, 10192-10197; and Bubser et al. ACS Chem. Neurosci. 2014, 5, 920-942."}, "[1]": {"test": "MDCK-MDR1 permeability / efflux", "format": "in vitro ADME", "conditions": "dog, MDCK-MDR1", "procedure": "as §1"}, "Rat intrinsic clearance": {"test": "Rat intrinsic clearance", "format": "in vitro ADME", "procedure": "as §1"}},
  "note": "pEC50: −log10 of the molar value. Read-outs that look alike come from different tables or passages of the source.",
  "data": [
    {"smiles": "Cc1c(N2CCc3nc(C4(F)CC4)sc3C2)nc2nn(C)c(=O)n2c1C", "note": "[Compound 70, 7-(2-(1-fluorocyclopropyl)-6,7-dihydrothiazolo[5,4-c]pyridin-5(4H)-yl)-2,5,6-trimethyl-[1,2,4]triazolo[4,3-a]pyrimidin-3(2H)-one]", "values": [
      {"measurement": "hM4_cAMP Activity Agonist % ACh Max", "setting": "Human M4; agonist mode, EC80 forskolin, no acetylcholine", "value": 81, "unit": "% ACh Max"},
      {"measurement": "pEC50", "setting": "Human M4; agonist mode, EC80 forskolin, no acetylcholine, read-out: hM4_cAMP Activity Agonist EC50", "value": 7.72},
      {"measurement": "hM4_cAMP Activity PAM % ACh Max", "setting": "Human M4; potentiator mode, forskolin plus EC20 acetylcholine", "value": 74, "unit": "% ACh Max"},
      {"measurement": "pEC50", "setting": "Human M4; potentiator mode, forskolin plus EC20 acetylcholine, read-out: hM4_cAMP Activity PAM EC50", "value": 7.96},
      {"measurement": "MDCK-MDR1 ER", "setting": "MDCK-MDR1", "value": "0.9 (Papp A→ B:"},
      {"measurement": "Papp A→B", "setting": "[1]", "value": 36.7, "unit": "×10⁻⁶ cm/s"},
      {"measurement": "CLint scaled", "setting": "Rat intrinsic clearance", "value": 36, "unit": "mL/min/kg"}
    ]}
  ]
}
